Data published in patent publication US6664426B1, “Ether and ester derivatives of the perborate icosahedron” (The Regents of the University of California, priority 2000, dated 2003).

assay: Qualitative solubility in water; type: physicochemical; conditions: qualitative statement

| Substance | solubility in water |
| --- | --- |
| Cs2[closo-B12(OH)12] [dicesium salt] | freely soluble in water |
| Cs2[closo-B12H12]^2− | sparingly water-soluble |
| Cs[closo-1-CB11H12]^− | sparingly water-soluble |
| closo-1,12-(CH2OH)2-1,12-C2B10H10 | slightly water-soluble |
| closo-1,12-C2B10H12 | not water-soluble |
